# The source made the active and inactive calls.
# Experiments:
# INS1 = experiment: beta cell apoptosis inhibitors, cytokine rescue, dose response, luminescence, retest (AID 449756); type: functional, cell-based; details: Rattus norvegicus;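 note: cell death triggered by IL-1 beta plus TNF-alpha plus IFN-gamma mixture; protective hits raise ATP signal compared with cytokine alone wells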
# [1] = biological target: COUP transcription factor 2 (Homo sapiens, UniProt P24468); experiment: Luminescence-based cell-based high throughput dose response assay to identify inhibitors of COUP-TFII (NR2F2).; type: functional;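 note: HEK293 cells transiently cotransfected with COUP-TFII expression vector and reporter; luciferase reporter luminescence driven by COUP-TFII from the pX2-168 reporter plasmid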
# [2] = cytotoxicity in HEK-293T cells, dose response, cytotoxicity control for TCR NF-kB inhibitor project, luminescence, T-cell screen hits (AID 489026); type: functional, cell-based;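 note: cells exposed to compound about 14 hours before the viability readout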
# Galanin receptor type 3 = Galanin receptor type 3 (Homo sapiens, UniProt O60755); experiment: Fluorescence-based cell-based primary high throughput dose response assay to identify antagonists of the Galanin Receptor 3 (GalR3).; type: functional
# cells = type: functional, cell-based; details: HEK-CNG
# [3] = miR-122 activators in hepatoma reporter cells, dose response, cell-based, Huh7 psiCHECK-miR122, Renilla luciferase, cherry-picked (AID 651956); type: functional;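 note: huh7 hepatoma cells stably carrying a psiCHECK-2 miR-122 sensor plasmid; renilla luciferase signal reporting endogenous miR-122 activity after 48 h compound exposure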
# fMet-Leu-Phe receptor = fMet-Leu-Phe receptor (Homo sapiens, UniProt P21462); experiment: FPR ligands, dose response (AID 519); type: functional
# [4] = biological target: T1, Sentrin-specific protease 8 (Homo sapiens, UniProt Q96LD8); type: functional
# T1 sequence (Q96LD8 whole entry): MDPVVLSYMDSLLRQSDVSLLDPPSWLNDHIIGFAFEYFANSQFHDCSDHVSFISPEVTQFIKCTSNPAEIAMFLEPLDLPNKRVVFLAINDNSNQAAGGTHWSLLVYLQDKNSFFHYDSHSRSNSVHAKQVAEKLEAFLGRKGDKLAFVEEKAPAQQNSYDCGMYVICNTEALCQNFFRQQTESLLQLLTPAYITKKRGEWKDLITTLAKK
# [5] = biological target: T1, Sentrin-specific protease 8; type: functional; remark: listed apart in the source
# [6] = biological target: T2, DNA repair protein RAD52 homolog (Homo sapiens, UniProt P43351); type: functional, biochemical
# T2 sequence (P43351 whole entry): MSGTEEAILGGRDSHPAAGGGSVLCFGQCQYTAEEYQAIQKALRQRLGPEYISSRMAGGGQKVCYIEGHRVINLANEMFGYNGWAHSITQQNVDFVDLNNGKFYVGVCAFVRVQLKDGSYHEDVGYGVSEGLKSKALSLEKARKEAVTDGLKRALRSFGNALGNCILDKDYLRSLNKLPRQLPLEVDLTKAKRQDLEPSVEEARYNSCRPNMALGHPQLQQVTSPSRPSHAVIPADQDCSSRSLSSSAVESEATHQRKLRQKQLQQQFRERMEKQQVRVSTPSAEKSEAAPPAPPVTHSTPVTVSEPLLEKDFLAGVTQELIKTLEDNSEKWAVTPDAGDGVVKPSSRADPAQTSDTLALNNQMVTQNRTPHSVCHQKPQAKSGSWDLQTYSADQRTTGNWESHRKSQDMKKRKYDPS
# [7] = biological target: DNA repair and recombination protein RAD54-like (Homo sapiens, UniProt Q92698); experiment: inhibitors of human RAD54 branch migration, confirmation, biochemical, fluorescence, cherry-picked samples, dose series (AID 651657); type: functional
# [8] = biological target: T3, Heat shock factor protein 1 (Mus musculus, UniProt P38532); experiment: HSF1 potentiators in luciferase reporter cells, confirmation, cell-based, NIH3T3, luminescence, dose retest (AID 435004); type: functional;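 note: stress induced by proteasome inhibitor MG132 added 30 min after compound; luciferase reporter driven by HSF1 response element in NIH3T3 cells; actives raise luminescence as potentiators of the MG132 stress response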
# T3 sequence (P38532 whole entry): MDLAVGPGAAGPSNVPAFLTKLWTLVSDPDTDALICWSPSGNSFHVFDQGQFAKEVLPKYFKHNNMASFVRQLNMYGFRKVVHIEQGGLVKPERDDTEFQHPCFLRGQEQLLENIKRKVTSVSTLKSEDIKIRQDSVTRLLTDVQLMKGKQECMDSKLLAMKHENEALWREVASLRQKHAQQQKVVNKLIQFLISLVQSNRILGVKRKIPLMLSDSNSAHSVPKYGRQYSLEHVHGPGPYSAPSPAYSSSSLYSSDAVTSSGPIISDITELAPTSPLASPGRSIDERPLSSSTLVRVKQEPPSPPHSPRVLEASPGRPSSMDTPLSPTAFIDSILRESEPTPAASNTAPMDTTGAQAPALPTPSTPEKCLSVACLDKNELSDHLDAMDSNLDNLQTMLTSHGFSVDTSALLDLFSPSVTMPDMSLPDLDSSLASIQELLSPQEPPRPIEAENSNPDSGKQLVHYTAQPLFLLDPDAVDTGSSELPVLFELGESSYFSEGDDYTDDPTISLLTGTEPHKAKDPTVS
# Albumin = Albumin (Bos taurus, UniProt P02769); experiment: Counterscreen for inhibitors of T-cell receptor (TCR)-CD3 interaction: Fluorescence-based biochemical high throughput dose response assay to identify inhibitors of T-cell receptor (TCR)-CD3 interaction using a TAMRA-labeled BSA probe.; type: functional
# Hexokinase HKDC1 = biological target: T4, Hexokinase HKDC1 (Homo sapiens, UniProt Q2TB90); experiment: HKDC1 hexokinase activators, dose response, biochemical, W721R variant (AID 504730); type: functional
# T4 sequence (Q2TB90 whole entry): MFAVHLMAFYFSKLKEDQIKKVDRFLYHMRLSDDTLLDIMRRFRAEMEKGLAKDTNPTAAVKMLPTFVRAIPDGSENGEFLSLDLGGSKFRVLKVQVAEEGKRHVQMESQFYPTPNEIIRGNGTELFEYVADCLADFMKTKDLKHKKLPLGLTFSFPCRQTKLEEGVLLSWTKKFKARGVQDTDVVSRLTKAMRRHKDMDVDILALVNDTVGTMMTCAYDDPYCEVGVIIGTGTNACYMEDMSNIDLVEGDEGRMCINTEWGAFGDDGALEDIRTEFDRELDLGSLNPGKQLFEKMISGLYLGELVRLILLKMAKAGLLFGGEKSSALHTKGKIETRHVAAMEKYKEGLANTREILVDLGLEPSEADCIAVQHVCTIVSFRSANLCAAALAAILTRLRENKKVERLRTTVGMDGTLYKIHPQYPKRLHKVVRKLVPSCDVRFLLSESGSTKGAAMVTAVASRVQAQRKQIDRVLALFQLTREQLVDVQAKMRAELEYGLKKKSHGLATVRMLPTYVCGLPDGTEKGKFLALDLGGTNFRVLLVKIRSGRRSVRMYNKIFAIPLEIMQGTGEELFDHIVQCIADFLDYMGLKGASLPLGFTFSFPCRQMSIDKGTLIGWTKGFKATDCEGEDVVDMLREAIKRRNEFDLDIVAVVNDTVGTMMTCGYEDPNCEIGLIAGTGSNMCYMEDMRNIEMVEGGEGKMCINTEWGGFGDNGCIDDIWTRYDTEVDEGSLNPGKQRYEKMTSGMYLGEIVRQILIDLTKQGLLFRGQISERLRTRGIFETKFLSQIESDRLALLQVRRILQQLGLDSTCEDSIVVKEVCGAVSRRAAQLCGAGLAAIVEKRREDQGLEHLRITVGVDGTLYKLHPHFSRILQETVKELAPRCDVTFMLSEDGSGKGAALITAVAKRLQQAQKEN
# [9] = biological target: Dual specificity protein phosphatase 3 (Homo sapiens, UniProt P51452); experiment: VHR phosphatase inhibition, dose response, selectivity assay for STEP inhibitor project, biochemical (AID 602374); type: functional; details: read-out: IC50_Mean
# Hexokinase-1 = biological target: T5, Hexokinase-1 (Homo sapiens, UniProt P19367); experiment: hexokinase 1 activators, dose response, selectivity assay for HKDC1 activator project, biochemical (AID 504762); type: functional
# T5 sequence (P19367 whole entry): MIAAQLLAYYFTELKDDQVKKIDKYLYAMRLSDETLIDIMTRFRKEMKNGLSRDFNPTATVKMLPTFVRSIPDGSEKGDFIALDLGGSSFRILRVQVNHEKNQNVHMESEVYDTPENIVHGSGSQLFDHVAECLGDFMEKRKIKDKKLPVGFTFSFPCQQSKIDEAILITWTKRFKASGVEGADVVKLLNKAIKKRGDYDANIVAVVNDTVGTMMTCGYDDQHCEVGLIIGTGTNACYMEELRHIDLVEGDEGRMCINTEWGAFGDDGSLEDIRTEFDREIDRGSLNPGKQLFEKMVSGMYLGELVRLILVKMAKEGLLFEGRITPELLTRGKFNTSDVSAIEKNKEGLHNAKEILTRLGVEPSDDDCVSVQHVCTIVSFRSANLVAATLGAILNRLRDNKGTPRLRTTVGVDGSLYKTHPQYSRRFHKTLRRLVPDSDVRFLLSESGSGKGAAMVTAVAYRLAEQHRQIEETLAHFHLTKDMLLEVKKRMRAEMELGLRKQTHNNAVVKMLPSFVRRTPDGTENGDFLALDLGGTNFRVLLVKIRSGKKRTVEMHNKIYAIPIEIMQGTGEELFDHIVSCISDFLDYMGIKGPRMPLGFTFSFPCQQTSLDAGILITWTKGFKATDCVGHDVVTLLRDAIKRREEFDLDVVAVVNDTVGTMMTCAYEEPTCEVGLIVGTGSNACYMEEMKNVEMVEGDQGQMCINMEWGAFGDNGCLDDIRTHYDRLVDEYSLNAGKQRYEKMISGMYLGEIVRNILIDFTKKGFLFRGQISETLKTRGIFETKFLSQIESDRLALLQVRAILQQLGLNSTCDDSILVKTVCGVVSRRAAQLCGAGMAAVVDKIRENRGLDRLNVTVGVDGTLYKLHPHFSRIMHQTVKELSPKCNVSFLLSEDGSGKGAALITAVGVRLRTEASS
# [10] = biological target: Tyrosine-protein phosphatase non-receptor type 11 (Homo sapiens, UniProt Q06124); experiment: SHP2 phosphatase inhibition, dose response, selectivity assay for STEP inhibitor project, biochemical (AID 602367); type: functional; details: read-out: IC50_Mean
# [11] = biological target: Tyrosine-protein phosphatase non-receptor type 5 (Homo sapiens, UniProt P54829); experiment: STEP phosphatase inhibitors, confirmation, biochemical, fluorescence intensity, uHTS hits (AID 602372); type: functional; details: read-out: IC50_Mean
# [12] = HEK293T cell cytotoxicity, dose response, cytotoxicity control for HIV Vif inhibitor project, cherry-picks (AID 652208); type: functional, cell-based
# Cytochrome P450 2D6 = Cytochrome P450 2D6 (Homo sapiens, UniProt P10635);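 note: CYP2D6 member of a cytochrome P450 panel assay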
# Cytochrome P450 2C9 = Cytochrome P450 2C9 (Homo sapiens, UniProt P11712)
# [13] = StAR promoter reporter inhibition counter-screen, dose response, counter-screen for LRH-1 inverse agonist project, cell-based, luminescence, luciferase reporter (AID 651969); type: functional
# Steroidogenic factor 1 = Steroidogenic factor 1 (Homo sapiens, UniProt Q13285); experiment: Counterscreen for inverse agonists of the liver receptor homolog-1 (LRH-1; NR5A2): Luminescence-based cell-based high throughput dose response assay to identify inverse agonists of the Steroidogenic Factor 1 Nuclear Receptor (SF1; NR5A1).; type: functional
# [14] = biological target: Nuclear receptor subfamily 5 group A member 2 (Homo sapiens, UniProt O00482); type: functional, cell-based;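 note: HEK293T cells transfected with LRH-1 and a StAR promoter luciferase reporter; potency for inhibitors that lower LRH-1 driven reporter light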
# [15] = LMP1-driven NF-kB reporter inhibition, dose response, cell-based, luciferase reporter, luminescence, dry powder, set 2 (AID 624376); type: functional
# Nuclear receptor subfamily 5 group A member 2, sequence (O00482 whole entry): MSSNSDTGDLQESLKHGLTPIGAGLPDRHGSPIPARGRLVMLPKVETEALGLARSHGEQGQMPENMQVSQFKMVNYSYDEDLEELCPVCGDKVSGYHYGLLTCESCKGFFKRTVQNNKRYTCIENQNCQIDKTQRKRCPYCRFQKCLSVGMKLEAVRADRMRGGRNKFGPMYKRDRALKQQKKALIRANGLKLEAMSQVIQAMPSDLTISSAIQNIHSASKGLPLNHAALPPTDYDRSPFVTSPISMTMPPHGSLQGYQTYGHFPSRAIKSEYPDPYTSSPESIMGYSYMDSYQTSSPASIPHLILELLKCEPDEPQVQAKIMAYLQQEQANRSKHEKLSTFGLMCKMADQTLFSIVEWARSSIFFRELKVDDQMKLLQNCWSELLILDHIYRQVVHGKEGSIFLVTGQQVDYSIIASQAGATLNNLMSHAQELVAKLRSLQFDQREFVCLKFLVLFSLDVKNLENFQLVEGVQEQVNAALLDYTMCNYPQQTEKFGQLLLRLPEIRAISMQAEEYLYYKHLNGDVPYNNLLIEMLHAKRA
# Steroidogenic factor 1, sequence (Q13285 whole entry): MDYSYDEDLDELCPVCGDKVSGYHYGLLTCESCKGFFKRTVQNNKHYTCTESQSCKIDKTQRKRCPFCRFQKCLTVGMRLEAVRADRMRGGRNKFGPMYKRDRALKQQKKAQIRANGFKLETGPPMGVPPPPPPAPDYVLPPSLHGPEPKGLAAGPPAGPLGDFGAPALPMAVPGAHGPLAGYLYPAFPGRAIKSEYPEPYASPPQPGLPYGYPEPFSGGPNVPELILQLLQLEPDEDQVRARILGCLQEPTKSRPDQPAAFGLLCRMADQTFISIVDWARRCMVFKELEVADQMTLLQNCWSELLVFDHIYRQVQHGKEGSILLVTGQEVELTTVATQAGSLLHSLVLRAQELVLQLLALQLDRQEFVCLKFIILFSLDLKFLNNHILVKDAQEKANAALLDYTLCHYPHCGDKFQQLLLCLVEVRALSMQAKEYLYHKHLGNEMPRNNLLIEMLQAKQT
# DNA repair and recombination protein RAD54-like, sequence (Q92698 whole entry): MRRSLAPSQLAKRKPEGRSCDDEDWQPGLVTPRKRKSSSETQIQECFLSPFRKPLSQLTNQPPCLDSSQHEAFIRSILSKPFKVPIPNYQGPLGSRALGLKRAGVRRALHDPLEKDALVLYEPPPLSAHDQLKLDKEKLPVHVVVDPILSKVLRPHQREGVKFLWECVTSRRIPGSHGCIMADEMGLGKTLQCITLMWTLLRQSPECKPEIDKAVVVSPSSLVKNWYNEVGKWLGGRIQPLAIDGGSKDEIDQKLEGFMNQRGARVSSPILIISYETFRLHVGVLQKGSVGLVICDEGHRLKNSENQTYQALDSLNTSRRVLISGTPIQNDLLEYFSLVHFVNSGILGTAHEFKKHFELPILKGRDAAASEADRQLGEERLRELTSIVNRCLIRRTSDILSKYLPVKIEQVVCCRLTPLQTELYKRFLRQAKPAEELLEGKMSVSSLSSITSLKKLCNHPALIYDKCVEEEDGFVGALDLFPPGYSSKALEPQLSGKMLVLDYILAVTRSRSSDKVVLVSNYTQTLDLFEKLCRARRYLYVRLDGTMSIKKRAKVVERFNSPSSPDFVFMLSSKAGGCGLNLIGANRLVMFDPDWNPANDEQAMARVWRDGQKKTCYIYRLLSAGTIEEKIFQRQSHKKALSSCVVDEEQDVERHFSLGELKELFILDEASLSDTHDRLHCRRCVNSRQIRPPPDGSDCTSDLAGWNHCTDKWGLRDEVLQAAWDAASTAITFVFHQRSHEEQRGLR
# fMet-Leu-Phe receptor, sequence (P21462 whole entry): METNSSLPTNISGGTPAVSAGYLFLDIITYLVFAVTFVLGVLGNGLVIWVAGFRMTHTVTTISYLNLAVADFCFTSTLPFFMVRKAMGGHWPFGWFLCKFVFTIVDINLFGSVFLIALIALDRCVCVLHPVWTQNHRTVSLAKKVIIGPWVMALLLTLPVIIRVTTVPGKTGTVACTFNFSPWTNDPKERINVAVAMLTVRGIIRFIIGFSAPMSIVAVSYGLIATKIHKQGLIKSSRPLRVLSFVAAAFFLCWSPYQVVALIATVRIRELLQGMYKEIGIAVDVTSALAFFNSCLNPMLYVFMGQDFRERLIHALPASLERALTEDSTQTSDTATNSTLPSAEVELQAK
# Galanin receptor type 3, sequence (O60755 whole entry): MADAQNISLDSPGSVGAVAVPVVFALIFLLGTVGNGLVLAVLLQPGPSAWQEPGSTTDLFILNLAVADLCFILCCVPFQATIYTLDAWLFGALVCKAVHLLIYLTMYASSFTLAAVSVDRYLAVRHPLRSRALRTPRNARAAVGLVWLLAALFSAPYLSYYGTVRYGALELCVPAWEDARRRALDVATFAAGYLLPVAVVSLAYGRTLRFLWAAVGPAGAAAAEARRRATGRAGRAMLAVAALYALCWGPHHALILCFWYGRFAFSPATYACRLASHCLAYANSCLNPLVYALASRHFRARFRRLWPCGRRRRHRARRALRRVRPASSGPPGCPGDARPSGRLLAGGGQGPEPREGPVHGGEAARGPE
# COUP transcription factor 2, sequence (P24468 whole entry): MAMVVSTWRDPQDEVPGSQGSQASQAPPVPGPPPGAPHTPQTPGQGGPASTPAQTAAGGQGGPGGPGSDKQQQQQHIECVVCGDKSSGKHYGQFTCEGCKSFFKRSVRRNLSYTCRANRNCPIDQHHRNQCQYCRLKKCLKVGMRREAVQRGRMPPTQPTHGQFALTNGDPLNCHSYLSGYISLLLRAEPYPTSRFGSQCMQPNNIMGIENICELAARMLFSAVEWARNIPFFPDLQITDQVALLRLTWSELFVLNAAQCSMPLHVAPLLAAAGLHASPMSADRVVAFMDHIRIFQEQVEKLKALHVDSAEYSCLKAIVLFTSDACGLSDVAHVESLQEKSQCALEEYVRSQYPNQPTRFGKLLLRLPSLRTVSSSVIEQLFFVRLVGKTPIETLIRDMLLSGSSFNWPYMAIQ
# Tyrosine-protein phosphatase non-receptor type 11, sequence (Q06124 whole entry): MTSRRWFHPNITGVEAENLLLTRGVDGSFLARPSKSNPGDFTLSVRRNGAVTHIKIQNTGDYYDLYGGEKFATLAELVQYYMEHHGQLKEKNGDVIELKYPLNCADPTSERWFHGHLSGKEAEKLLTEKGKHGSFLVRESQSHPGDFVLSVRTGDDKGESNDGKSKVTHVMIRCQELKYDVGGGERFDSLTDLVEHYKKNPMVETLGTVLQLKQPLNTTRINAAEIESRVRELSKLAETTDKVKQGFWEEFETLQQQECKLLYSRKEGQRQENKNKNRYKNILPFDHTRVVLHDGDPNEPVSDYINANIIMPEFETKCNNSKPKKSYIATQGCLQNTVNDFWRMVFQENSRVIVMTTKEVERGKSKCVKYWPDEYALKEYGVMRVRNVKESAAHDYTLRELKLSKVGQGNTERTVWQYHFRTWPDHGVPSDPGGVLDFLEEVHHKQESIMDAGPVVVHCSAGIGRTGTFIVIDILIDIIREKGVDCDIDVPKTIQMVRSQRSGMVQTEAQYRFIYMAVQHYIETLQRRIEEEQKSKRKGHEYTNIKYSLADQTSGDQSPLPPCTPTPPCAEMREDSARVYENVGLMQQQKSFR
# Cytochrome P450 2C9, sequence (P11712 whole entry): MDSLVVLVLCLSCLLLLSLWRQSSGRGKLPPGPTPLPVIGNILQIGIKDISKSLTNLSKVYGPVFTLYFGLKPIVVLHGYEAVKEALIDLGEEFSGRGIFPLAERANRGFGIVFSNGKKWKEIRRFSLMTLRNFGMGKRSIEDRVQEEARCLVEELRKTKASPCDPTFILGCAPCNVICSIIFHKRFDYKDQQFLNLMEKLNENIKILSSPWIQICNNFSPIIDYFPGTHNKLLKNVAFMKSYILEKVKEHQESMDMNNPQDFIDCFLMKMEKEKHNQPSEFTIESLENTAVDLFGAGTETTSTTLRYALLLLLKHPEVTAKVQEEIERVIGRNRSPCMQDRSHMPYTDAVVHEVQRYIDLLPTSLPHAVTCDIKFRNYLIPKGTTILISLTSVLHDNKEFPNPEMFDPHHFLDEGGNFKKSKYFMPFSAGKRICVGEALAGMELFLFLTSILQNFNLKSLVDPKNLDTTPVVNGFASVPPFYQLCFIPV
# Albumin, sequence (P02769 whole entry): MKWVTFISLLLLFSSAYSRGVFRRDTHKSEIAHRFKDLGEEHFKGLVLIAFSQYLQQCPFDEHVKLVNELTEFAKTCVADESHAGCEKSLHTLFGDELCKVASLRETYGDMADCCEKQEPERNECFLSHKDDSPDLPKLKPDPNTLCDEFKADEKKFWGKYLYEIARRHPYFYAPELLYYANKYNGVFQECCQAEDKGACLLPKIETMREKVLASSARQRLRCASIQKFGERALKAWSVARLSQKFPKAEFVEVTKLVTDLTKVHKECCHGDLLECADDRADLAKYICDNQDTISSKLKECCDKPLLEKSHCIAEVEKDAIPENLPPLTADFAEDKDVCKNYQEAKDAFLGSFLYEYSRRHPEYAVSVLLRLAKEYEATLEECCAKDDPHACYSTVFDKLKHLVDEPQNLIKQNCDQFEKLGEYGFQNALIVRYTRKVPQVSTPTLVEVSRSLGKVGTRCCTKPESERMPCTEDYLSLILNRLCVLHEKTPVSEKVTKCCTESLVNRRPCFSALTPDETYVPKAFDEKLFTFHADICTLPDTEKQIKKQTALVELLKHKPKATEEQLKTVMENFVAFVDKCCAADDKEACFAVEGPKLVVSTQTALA
# Dual specificity protein phosphatase 3, sequence (P51452 whole entry): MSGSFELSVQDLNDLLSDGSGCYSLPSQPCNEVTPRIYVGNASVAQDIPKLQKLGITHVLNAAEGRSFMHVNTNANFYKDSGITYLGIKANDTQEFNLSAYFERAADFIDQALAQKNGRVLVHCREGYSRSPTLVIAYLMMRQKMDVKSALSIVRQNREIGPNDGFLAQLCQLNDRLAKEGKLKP
compound,measurement,setting,value
O=C(CSc1nnc(Cn2nnc3ccccc32)o1)N(Cc1ccc(F)cc1)c1ccccc1,AC50,INS1,4.43 µM (active)
same,IC50,[1],4.87 µM (active)
same,IC50,[2],> 80 µM (inactive)
same,IC50,Galanin receptor type 3,1.24 µM (active)
same,EC50,cells,> 29.9 µM (inactive)
C[C@@H]1CN([C@@H](C)CO)S(=O)(=O)c2ccc(-c3ccccc3)cc2O[C@@H]1CN(C)C(=O)c1ccc2c(c1)OCO2,AC50,[3],16.3 µM (active)
COc1ccc(-c2nc(N3CCCC3)[nH]c(=O)c2C#N)cc1,Ki,fMet-Leu-Phe receptor,> 66.7 µM (inactive)
O=C(COC(=O)c1cc(S(=O)(=O)N2CCc3ccccc3C2)ccc1Cl)NCc1ccco1,IC50,[4],12.4 µM (active)
same,IC50,[5],> 100 µM (inactive)
CCOC(=O)c1cnc2ccc(OCC)cc2c1NCCCN1CCOCC1,AC50,[6],11.2 µM (active)
same,AC50,[7],11.7 µM (active)
CCOC(=O)c1c(NC(C)=O)sc2c(O)c(CN3CCN(CC)CC3)ccc12,EC50,[8],55.8 µM (active)
same,AC50,[7],32.1 µM (active)
CNC(=S)N/N=C/c1cc(Br)cc(Br)c1O,IC50,Albumin,> 94.1 µM (inactive)
CC(=NNC(=S)N1CC2CCC(CC2)C1)c1cccc(C)n1,EC50,Hexokinase HKDC1,> 80 µM (inactive)
same,IC50,[9],7.77 µM (active)
same,EC50,Hexokinase-1,> 80 µM (inactive)
same,IC50,[10],6.06 µM (active)
same,IC50,[11],> 80 µM (inactive)
COc1ccc(-c2coc3c(C(=O)Nc4cccc(C(C)=O)c4)cccc23)c(C)c1,AC50,[12],> 52 µM (inactive)
COC(=O)c1ccc2c(=O)n(Cc3ccco3)c(SCC(=O)Nc3cc(C)on3)nc2c1,AC50,[12],35.7 µM (active)
Cc1nc2sc(C#N)c(N)c2c2c1CCCC2,AC50,Cytochrome P450 2D6,398 nM (inconclusive)
same,IC50,Galanin receptor type 3,> 29.9 µM (inactive)
same,EC50,cells,> 29.9 µM (inactive)
same,AC50,Cytochrome P450 2C9,inconclusive
Cc1cc(NC(=O)CSc2nnc(Cn3c(=O)sc4ccccc43)n2-c2ccccc2C)no1,Ki,fMet-Leu-Phe receptor,> 66.7 µM (inactive)
COc1ccc(Nc2nc(NCCN3CCOCC3)nc(Nc3ccc(OC)cc3)n2)cc1,IC50,[13],12 µM (inactive)
same,IC50,Steroidogenic factor 1,4.32 µM (active)
same,IC50,[14],5.3 µM (active)
CN(C)S(=O)(=O)c1cccc(C(=O)OCC(=O)Nc2ccc3c(c2)OCCO3)c1,IC50,[13],35.9 µM (inactive)
same,IC50,Steroidogenic factor 1,3.18 µM (active)
same,IC50,[14],90.5 µM (inactive)
COc1cccc(S(=O)(=O)N(C)C[C@H]2Oc3cc(C4=CCCCC4)ccc3S(=O)(=O)N([C@@H](C)CO)C[C@@H]2C)c1,AbsAC35,[15],64.1 µM
